Consider 7 compounds from ChEMBL document CHEMBL1127242, “Conformationally constrained HIV-1 protease inhibitors” (Bioorg Med Chem Lett, 1994).

For this assay, the target named is Human immunodeficiency virus type 1 protease (Human immunodeficiency virus 1, UniProt Q72874). Kind of assay: Compound was tested for inhibitory activity against Human immunodeficiency virus (HIV-1) protease.
One may read the IC50 as the concentration needed to halve the response being measured. `C[C@@H]1CC[C@@H](O)[C@H]1N1CC[C@@](Cc2ccccc2)(C[C@H](O)[C@H](Cc2ccccc2)NC(=O)OC(C)(C)C)C1=O` displayed an IC50 of 14 nM.

`CC(C)(C)OC(=O)N[C@@H](Cc1ccccc1)[C@@H](O)CC1(Cc2ccccc2)CCN([C@H]2c3ccccc3C[C@H]2O)C1=O` (single isomer, unassigned) showed an IC50 of 37 nM.

For the compound `O=C(N[C@@H](Cc1ccccc1)[C@@H](O)C[C@]1(Cc2ccccc2)CCN([C@@H]2CS(=O)(=O)Cc3ccccc32)C1=O)O[C@H]1CCOC1`, the IC50 came to 1.8 nM.

`O=C(N[C@@H](Cc1ccccc1)[C@@H](O)C[C@@H](Cc1ccccc1)C(=O)N[C@H]1c2ccccc2C[C@H]1O)O[C@H]1CCOC1`: the IC50 turned out to be 0.06 nM.

As for `CC(C)(C)OC(=O)N[C@@H](Cc1ccccc1)[C@@H](O)C[C@]1(Cc2ccccc2)CCN([C@@H]2CSCc3ccccc32)C1=O`, the IC50 was determined as 111 nM.

In turn, `CC(C)(C)OC(=O)N[C@@H](Cc1ccccc1)[C@@H](O)C[C@]1(Cc2ccccc2)CCN([C@@H]2CS(=O)(=O)Cc3ccccc32)C1=O` showed a half-maximal inhibitory concentration (IC50) of 17 nM.

`CC(C)[C@@H](CO)N1CC[C@@](Cc2ccccc2)(C[C@H](O)[C@H](Cc2ccccc2)NC(=O)OC(C)(C)C)C1=O` gave a concentration for half-maximal inhibition (IC50) of 35 nM. This IC50 lies about 2.1-fold higher than the previous one.
